Assay results taken from patent publication US20230312449A1, “CARBOXYLIC ACID COMPOUND, AND PREPARATION METHOD THEREFOR AND APPLICATION THEREOF” (BOTREE CYCLING SCI & TECH CO., LTD., priority 2020, published 2023).
Several values for one entry are separate records, joined by “and”; a condition that tells them apart may be missing. Equal values may be shown once.

Test: Solubility of extractant in extraction system, oil content by CH2Cl2 extraction and weighing (Ni/Mg chloride system)
Assay type: physicochemical
Settings: 0.62 mol/L in Escaid 110; saponification 24%; nickel chloride solution 1.33 g/L Ni, 4 g/L Mg; 30 min; 25° C.
Protocol: Compound BC195 and diluent Escaid 110 were prepared into a 0.62 mol/L solution, and an aqueous phase was a magnesium-enriched nickel chloride solution containing 1.33 g/L Ni and 4 g/L Mg; 100 mL of the organic phase was added in a 250 mL separatory funnel, 10 mol/L sodium hydroxide aqueous solution was added for saponification to a saponification proportion of 24%, and after the saponification, 100 mL of the aqueous phase was added, extraction equilibrium was carried out for 30 min, and the temperature was 25° C.
Oil content test: the aqueous phase was separated out and added with H2SO4, and the [H^+] concentration of the aqueous phase solution was about 1 mol/L. The CH2Cl2 was used for extraction (30 mL×3), and the CH2Cl2 layer was collected, dried with 1 g anhydrous Na2SO4 to remove the water in CH2Cl2, and filtered; the filtrate was subjected to rotary evaporation, and then the residue was dried with an oil pump for 30 min. The oil content which CH2Cl2 extracted out in the system was obtained by weighing the flask before and after the rotary evaporation.
This comparative example differs from Performance Example 6 in that Compound BC195 was replaced by Extractant CA12 (commercially available, with an acid content of 98%).

CCCCCCC(OCC(CC)CCCC)C(=O)O (stereo not shown) [Compound BC195]
Equilibrium pH: 7.2 and 7.23
